# Experimental data published in the supplement of paper PMC10307832.
# Tests used:
# Test in all cases: relative viability (nuclei count vs DMSO), 5 days (fraction); higher = more cells survive
# [1] = compound: CC1=CC(=NN1)NC2=CC(=NC(=N2)/C=C/C3=CC=CC=C3)N4CCN(CC4)C + NC(=O)Nc1cc(-c2cccc(F)c2)sc1C(=O)N[C@H]1CCCNC1 [AZD7762] (partner 0.2 µM)
# Procedure, shortened: (§1)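 One day after seeding in 1536-well plates, lung cancer cell lines were dosed by pin tool. Dosing was either single-drug or a fixed anchor-drug dose plus five library-drug doses (not always all listed) in √10 steps. After 5 days, nuclei were stained in one fix-and-stain step and counted on 4× images, and relative viability is the nuclei count of treated wells over that of vehicle wells, given as the median of duplicate plates.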
# Obatoclax + Foretinib = compound: COC1=CC(c2cc3ccccc3[nH]2)=N/C1=C\c1[nH]c(C)cc1C [Obatoclax] + COc1cc2c(Oc3ccc(NC(=O)C4(C(=O)Nc5ccc(F)cc5)CC4)cc3F)ccnc2cc1OCCCN1CCOCC1 [Foretinib] (partner 0.25 µM)
# Procedure, shortened: as §1
# Bortezomib + Palbociclib = compound: CC(C)C[C@H](NC(=O)[C@H](Cc1ccccc1)NC(=O)c1cnccn1)B(O)O [Bortezomib] + CC(=O)c1c(C)c2cnc(Nc3ccc(N4CCNCC4)cn3)nc2n(C2CCCC2)c1=O [Palbociclib] (partner 0.5 µM)
# Procedure, shortened: as §1
# Obatoclax + Pemetrexed = compound: COC1=CC(c2cc3ccccc3[nH]2)=N/C1=C\c1[nH]c(C)cc1C [Obatoclax] + Nc1nc2[nH]cc(CCc3ccc(C(=O)N[C@@H](CCC(=O)O)C(=O)O)cc3)c2c(=O)[nH]1 [Pemetrexed] (partner 0.2 µM)
# Procedure, shortened: as §1
Cell Line,relative viability ([1]; first compound 0.08 µM),relative viability ([1]; first compound 0.253 µM),relative viability ([1]; first compound 0.8 µM),relative viability ([1]; first compound 2.53 µM),relative viability ([1]; first compound 8 µM),relative viability (Obatoclax + Foretinib; first compound 0.01 µM),relative viability (Obatoclax + Foretinib; first compound 0.03162 µM),relative viability (Obatoclax + Foretinib; first compound 0.1 µM),relative viability (Obatoclax + Foretinib; first compound 0.3162 µM),relative viability (Obatoclax + Foretinib; first compound 1 µM),relative viability (Bortezomib + Palbociclib; first compound 0.0002 µM),relative viability (Bortezomib + Palbociclib; first compound 0.000632 µM),relative viability (Bortezomib + Palbociclib; first compound 0.002 µM),relative viability (Bortezomib + Palbociclib; first compound 0.006325 µM),relative viability (Bortezomib + Palbociclib; first compound 0.02 µM),relative viability (Obatoclax + Pemetrexed; first compound 0.01 µM),relative viability (Obatoclax + Pemetrexed; first compound 0.03162 µM),relative viability (Obatoclax + Pemetrexed; first compound 0.1 µM),relative viability (Obatoclax + Pemetrexed; first compound 0.3162 µM),relative viability (Obatoclax + Pemetrexed; first compound 1 µM)
NCI-H727,0.571,0.427,0.601,0.55,0.381,1.04,0.628,1.07,0.699,1.08,0.751,0.603,0.623,0.684,0.23,–,–,–,–,–
NCI-H1944,0.539,0.524,0.469,0.229,0.117,0.877,0.772,0.894,0.942,0.933,0.315,0.309,0.336,0.21,0.15,0.649,0.551,0.638,0.608,0.602
NCI-H1437,1.17,1.17,1.21,1.05,0.416,1.22,1.28,1.21,1.16,1.25,0.305,0.35,0.319,0.135,0.118,0.305,0.344,0.324,0.307,0.319
NCI-H441,1.17,1.06,1.1,0.728,0.152,0.877,0.925,1.05,0.639,0.612,0.22,0.2,0.129,0.109,0.101,0.231,0.217,0.27,0.244,0.269
EMC-BAC-2,1.11,1.22,1.1,0.654,0.354,0.987,1.03,1.08,0.864,0.788,0.524,0.484,0.466,0.285,0.205,0.42,0.47,0.395,0.452,0.419
NCI-H647,0.328,0.598,0.499,0.103,0.0452,1.14,1.04,1.12,0.935,0.476,0.385,0.251,0.426,0.0189,0.0229,0.207,0.164,0.19,0.144,0.116
CAL-12T,0.626,0.655,0.647,0.319,0.152,1.11,1.16,1.09,0.343,0.134,0.561,0.447,0.384,0.182,0.104,1.04,1.16,1.13,0.896,0.149
NCI-H1792,0.659,0.732,0.665,0.132,0.0222,–,–,–,–,–,0.628,0.593,0.494,0.637,0.375,0.909,0.58,0.459,0.799,0.386
H3255,0.866,0.935,0.955,0.782,0.374,0.826,0.802,0.891,1.05,0.996,0.322,0.335,0.285,0.256,0.243,0.54,0.51,0.498,0.471,0.597
HCC-78,0.628,0.746,0.868,0.401,0.249,0.532,0.53,0.608,0.553,0.59,0.517,0.531,0.444,0.451,0.405,0.858,0.898,0.777,0.887,0.897
EBC-1,–,–,–,–,–,0.102,0.112,0.119,0.119,0.113,–,–,–,–,–,–,–,–,–,–
NCI-H2405,0.742,0.766,0.768,0.357,0.118,1.09,1.06,–,1.07,1.13,0.503,0.547,0.349,0.143,0.141,1.11,1.01,–,1.07,0.927
A549,–,–,–,–,–,0.958,0.947,0.979,0.959,0.764,–,–,–,–,–,–,–,–,–,–
NCI-H3122,0.963,0.943,1,0.944,0.408,0.97,0.783,0.912,0.925,0.947,0.197,0.204,0.205,0.135,0.102,0.19,0.202,0.2,0.203,0.221
NCI-H1563,–,–,–,–,–,0.903,0.91,1.04,0.824,0.806,–,–,–,–,–,0.803,0.713,0.583,0.727,0.896
HCC-44,1.02,1.03,1.01,1.01,0.844,–,–,–,–,–,1.02,1.02,0.943,0.759,0.278,0.64,0.648,0.589,0.627,0.652
PC-3 [JPC-3],0.709,0.805,0.764,0.554,0.303,1,1.03,1.01,1.01,0.916,0.521,0.583,0.413,0.285,0.227,1.07,0.933,0.925,0.645,0.476
NCI-H1993,0.712,0.622,0.775,0.33,0.3,0.766,0.757,0.807,0.771,0.876,0.569,0.737,0.666,0.369,0.359,0.593,0.544,0.727,0.545,0.346
